Biological target: KRas G12D/Q61H double mutant (Homo sapiens (Human), UniProt P01116, G12D/Q61H)
Assay: Ras GTP binding domain inhibition assay (labeled GTP)
Settings: 20 μM compound; read-out: % Inhibition at 20 μM KRas G12D Q61H
Summary of the method: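 Ni-plate capture of His-KRas (3-10 μg/ml, o/n, 4° C); Tris pH 7.5/MgCl2/DTT buffer, 1% DMSO. Cpd 20 μM or titration, 3 h RT. Cy3/Cy5-GTP 45 min RT, wash, fluorescence of bound GTP.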

Sequence of KRas G12D/Q61H double mutant (P01116-2 other isoform, or with tags, fused parts or gaps G12D/Q61H): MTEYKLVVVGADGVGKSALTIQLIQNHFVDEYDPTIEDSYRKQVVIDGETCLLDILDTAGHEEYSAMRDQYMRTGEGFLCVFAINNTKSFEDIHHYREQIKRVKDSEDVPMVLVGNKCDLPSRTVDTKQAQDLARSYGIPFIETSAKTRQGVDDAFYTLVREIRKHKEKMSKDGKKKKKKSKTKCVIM

Structure (SMILES) | inhibition at 20 µM
Cc1cc(NCCNC(=O)c2ccco2)nc(-c2ccccn2)n1 | 25 to 50%
O=C(NCC(=O)N1CCN(C2CC3CCC2C3)CC1)c1ccccn1 (stereo not shown) | 25 to 50%
COc1ccc(CCNC(=O)c2cc(S(=O)(=O)C3CCCCCC3)ccc2OC)cc1OC | 25 to 50%
CC1CN(c2nc(-c3ccccn3)nc3c2CCC3)C(C)CN1C (stereo not shown) | 25 to 50%
CC(C)(C)c1ccc(OCC(=O)N2N=CCC2(O)C(F)(F)F)cc1 (stereo not shown) | 25 to 50%
CC(C)CCC(=O)Nc1nnc(-c2ccccn2)[nH]1 | 25 to 50%
COc1ccc(OCCSc2nnc(C(C)Oc3ccc(F)cc3)o2)cc1 (stereo not shown) | 25 to 50%
O=C(Nc1nc(-c2cccnc2)cs1)c1ccccn1 | 25 to 50%
O=S(=O)(c1ccccc1)N(CCOc1cccc(Cl)c1)c1nccs1 | 25 to 50%
O=c1[nH]c(-c2ncccn2)nc2cc(-c3cccc(Cl)c3)sc12 | 25 to 50%
CN1CC(Nc2nc(-c3ccccn3)nc3c2CCC3)CCC1=O (stereo not shown) | 25 to 50%
N#Cc1ccc(-c2nnc(CN3CCOc4ccccc4C3)o2)cc1 | 25 to 50%
CCc1cc(CNc2cc(C)c([N+](=O)[O-])c(C(=O)OC)c2)on1 | 25 to 50%
COc1ccc(-c2csc(C3CC3)n2)cc1Cl | 25 to 50%
Cc1sc(C2CC2)nc1-c1ccc(F)c(F)c1 | 25 to 50%
COc1ccccc1CN(Cc1cccs1)C(=O)c1ccc(Br)o1 | 25 to 50%
O=c1[nH]c(-c2ccccn2)nc2ccc(F)cc12 | 25 to 50%
Cc1cccc(-c2nnc(NC(=O)C3Cc4cc(F)ccc4O3)[nH]2)n1 (stereo not shown) | 25 to 50%
O=C(c1cc(-c2ccccc2)nn1-c1ccccc1)N(Cc1nnc(-c2ccccc2Cl)o1)C1CC1 | 25 to 50%
Cc1cccc(C)c1OCCn1c(CN2CCCCC2)nc2ccccc21 | 25 to 50%
Cc1nc(-c2ccccn2)nc(O)c1CCC(=O)N(C)c1cccc(C#N)c1 | 25 to 50%
CCc1ccc(-c2nc(C)c(C(=O)N(Cc3ccco3)C3CCS(=O)(=O)C3)s2)cc1 (stereo not shown) | 25 to 50%

Structure (SMILES) | inhibition at 20 µM
COc1ccc(CC(=O)Nc2nc(-c3ccccn3)cs2)cc1OC | 25 to 50%
COc1ccc(NC(=O)CN(C)Cc2coc(-c3cccs3)n2)cc1 | 25 to 50%
O=c1[nH]c(-c2ccccn2)nc2[nH]nnc12 | 25 to 50%
COc1ccccc1CN(Cc1cccs1)C(=O)c1ccc(C#N)cc1 | 25 to 50%
COC(=O)c1ccc2c(=O)[nH]c(-c3ccccn3)nc2c1 | 25 to 50%
CCCOc1ccc(C(F)(F)F)cc1NCc1ncc(C)o1 | 25 to 50%
COc1ccccc1CN(Cc1cccs1)C(=O)c1ccc(N2CCCS2(=O)=O)cc1 | 25 to 50%
CCc1noc(CN(C)c2nc(-c3ccccn3)nc3c2CCC3)n1 | 25 to 50%
Cc1noc(C)c1CN(C(=O)c1ccc(COc2ccc(F)cc2)o1)c1ccccc1 | 25 to 50%
CCc1noc(CNc2cc(C(=O)OC)cc(C(F)(F)F)c2)n1 | 25 to 50%
Cc1cccc2c(=O)[nH]c(-c3ccccn3)nc12 | 25 to 50%
O=C(Nc1nnc(-c2ccccn2)[nH]1)c1ccc(NC2CC2)nc1 | 25 to 50%
Nc1nc(-c2ccccn2)nn1C(=O)c1ccc(N2CCNC2=O)cc1 | 25 to 50%
O=S(=O)(Oc1c(Cl)cc(Cl)c2cccnc12)N1CCCCCC1 | 25 to 50%
Cc1nc(C2CCCN2c2nccc(C(F)(F)F)n2)no1 (stereo not shown) | 25 to 50%
O=C(c1cnc(-c2ccccc2)s1)N1CCC(c2ccccc2)CC1 | 25 to 50%
COc1ccccc1OCc1ccc(C(=O)N2CCCc3c(F)cc(F)cc32)o1 | 25 to 50%
CCNC(=O)CNc1nc(-c2ccccn2)nc(C)c1C | 25 to 50%
Cc1nn(C)c(C)c1CC(=O)Nc1nnc(-c2ccccn2)[nH]1 | 25 to 50%
O=C(c1cc(-c2ccccc2)nc2ccccc12)N1N=CCC1(O)C(F)(F)F (stereo not shown) | 25 to 50%
Cc1cc(N2CCN(c3cccc(C(F)(F)F)c3)CC2)n2ncnc2n1 | 25 to 50%
Cn1ccnc1COc1ccc(C(=O)Nc2nnc(-c3ccccn3)[nH]2)cc1 | 25 to 50%

Structure (SMILES) | inhibition at 20 µM
CCOC(=O)C1CCCC1N(Cc1cccc([N+](=O)[O-])c1)C1CC1 (stereo not shown) | 25 to 50%
CN(C)c1ccccc1NCc1cc(Br)c2c(c1)OCCCO2 | 25 to 50%
COc1ccc(CCC(=O)Nc2nnc(-c3ccccn3)[nH]2)cc1OC | 25 to 50%
CCn1c(SCc2csc(-c3cccc(OC)c3OC)n2)nc2cc(S(N)(=O)=O)ccc21 | 25 to 50%
O=C(NCc1ccccn1)c1ccn(-c2cccc(Cl)c2)n1 | 25 to 50%
O=C(Nc1nc(-c2ccccn2)cs1)c1cccc(-n2cnnn2)c1 | 25 to 50%
COc1ccc(CN(Cc2cccs2)C(=O)c2oc3ccccc3c2C)cc1OC | 25 to 50%
COc1ccnc(CN2CCOC(C)(c3ccccc3)C2)c1OC (stereo not shown) | 25 to 50%
Cc1ccc(S(=O)(=O)NC(c2ccccc2)c2ccccn2)c(Cl)c1 (stereo not shown) | 25 to 50%
c1ccc(OCc2nc(CNCCn3cccn3)cs2)cc1 | 25 to 50%
Cc1cc(C2CCCN2c2nccc(C(F)(F)F)n2)no1 (stereo not shown) | 25 to 50%
Cc1cc(NCCNC(=O)Cc2ccccc2)nc(-c2ccccn2)n1 | 25 to 50%
CC(C(N)=O)N1CCOC(c2nc(-c3ccccc3)cs2)C1 (stereo not shown) | 25 to 50%
c1ccc(Oc2ccccc2NCc2nc(C3CC3)no2)cc1 | 25 to 50%
CCOC(=O)c1sc(N(C2CC2)S(=O)(=O)c2cc(F)ccc2C)nc1C | 25 to 50%
CC1=C(c2ccccc2)C2C(=O)NC(c3cnccn3)=NC2S1 (stereo not shown) | 25 to 50%
Cc1nc(CN(Cc2ccccc2)Cc2ccccc2)no1 | 25 to 50%
Cc1ccc(-c2c(C)sc3nc(-c4cnccn4)[nH]c(=O)c23)cc1 | 25 to 50%
CCN1CCN(c2nc(-c3ccccn3)nc3sc(-c4ccccc4)cc23)CC1 | 25 to 50%
CN(C)S(=O)(=O)c1ccc(N2CCCC2)c(C(=O)NCCCN2CCCC2=O)c1 | 25 to 50%
CCN(CC)S(=O)(=O)c1ccc(N2CCCC2)c(C(=O)NCCCn2cnc3ccccc32)c1 | 25 to 50%
OCC1CCCN(c2nc(-c3ccccn3)nc3scc(-c4ccccc4)c23)C1 (stereo not shown) | 25 to 50%

Structure (SMILES) | inhibition at 20 µM
O=S(=O)(NC(c1ccccc1)c1ccccn1)c1cc(C(F)(F)F)ccc1Cl (stereo not shown) | 25 to 50%
Cc1c(C(=O)Nc2nnc(-c3ccccn3)[nH]2)cnn1-c1ccc(C(F)(F)F)cn1 | 25 to 50%
CC(OCC1CC1)C(=O)Nc1nnc(-c2ccccn2)[nH]1 (stereo not shown) | 25 to 50%
C=CCc1ccc(OCCn2c(CN3CCOCC3)nc3ccccc32)c(OC)c1 | 25 to 50%
Cc1nc(-c2ccccn2)nc(NCCS(C)(=O)=O)c1C | 25 to 50%
Cc1ccc(C)c(OCc2nnc(SCC(C)C(=O)c3ccc(F)c(F)c3)o2)c1 (stereo not shown) | 25 to 50%
CC(C)Cn1cnnc1C1CCCN1c1ccc(C#N)c(C(F)(F)F)c1 (stereo not shown) | 25 to 50%
Cc1sc(NC2CCCCC2)nc1-c1ccc(F)c(F)c1 | 25 to 50%
COCc1nc(C)c(C(=O)Nc2nnc(-c3ccccn3)[nH]2)s1 | 25 to 50%
CCOC(=O)c1ccc(C(=O)NCCc2ccc(C(F)(F)F)cc2)nc1C | 25 to 50%
N#Cc1ccc(OCCSc2nnc(COc3ccc(F)cc3)o2)cc1 | 25 to 50%
CN1CCN(Cc2nnc(-c3ccccc3Cl)o2)c2ccc(F)cc21 | 25 to 50%
COc1cc(C(=O)Nc2nnc(-c3ccccn3)[nH]2)ccc1OCC(N)=O | 25 to 50%
Cc1n[nH]c(C2CN(C(C)c3ccncc3)CCO2)n1 (stereo not shown) | 25 to 50%
COC(=O)c1cccc(NCc2nc(CC(C)C)no2)c1 | 25 to 50%
CN(Cc1ccc(C(=O)NCC(F)(F)F)cc1)Cc1ccc([N+](=O)[O-])cc1 | 25 to 50%
Cc1[nH]c(-c2ccccn2)nc(=O)c1C | 25 to 50%
O=C(c1cccc(S(=O)(=O)N2CCOCC2)c1)N1N=C(c2ccccc2)CC1(O)C(F)(F)F (stereo not shown) | 25 to 50%
O=C(Cc1ccc(OC(F)(F)F)cc1)Nc1nnc(-c2ccccn2)[nH]1 | 25 to 50%
Cc1ccc2cccc(OS(=O)(=O)N3CCOCC3)c2n1 | 25 to 50%
COC(=O)CCN(Cc1ccc(Oc2ccc(OC)cc2)cc1)C1CCOCC1 | 1 to 25%
O=c1[nH]c(-c2cnc(Oc3ccccc3)cn2)nc2ccsc12 | 1 to 25%

Structure (SMILES) | inhibition at 20 µM
Fc1ccc(OCCSc2nnc(C3COc4ccccc4O3)o2)cc1 (stereo not shown) | 1 to 25%
O=c1[nH]c(-c2cnccn2)nc2ccccc12 | 1 to 25%
CN(Cc1nc2ccccc2n1C)C(=O)c1cccc(Cl)n1 | 1 to 25%
O=C(Nc1ccc(N2CCOCC2)cc1)c1ccccc1OCCOc1ccccc1 | 1 to 25%
N#Cc1ccc(N2CCCC2c2ccco2)cc1C(F)(F)F (stereo not shown) | 1 to 25%
Cc1nc(CC(C)C)sc1C(=O)Nc1nnc(-c2ccccn2)[nH]1 | 1 to 25%
OCCCSCCNc1nc(-c2ccccn2)nc2c1CCC2 | 1 to 25%
COc1ccc(OCCn2c(CN3CCCCC3)nc3ccccc32)cc1 | 1 to 25%
Cn1nc(-c2ccncc2)cc1NC(=O)c1cccnc1 | 1 to 25%
CC(C)N1C(=O)CC(Nc2cc(C(F)(F)F)nc(-c3ccccn3)n2)C1=O (stereo not shown) | 1 to 25%
O=C(c1csc(-c2ncccn2)n1)N1CCC(c2ccc(O)cc2)CC1 | 1 to 25%
CN(C(=O)c1ccc(COc2ccc(Br)cc2)o1)C1CCS(=O)(=O)C1 (stereo not shown) | 1 to 25%
Cc1ccc(C(C)C)cc1OS(=O)(=O)N1CCc2ccccc2C1 | 1 to 25%
Cc1cccc(OCCNC(=O)c2cc(S(=O)(=O)N3CCOCC3)ccc2N2CCOCC2)c1 | 1 to 25%
CCN(CC)S(=O)(=O)c1ccc(N2CCOCC2)c(C(=O)NCCCn2cnc3ccccc32)c1 | 1 to 25%
COc1ccc(-c2nc(C(=O)NCc3ccccn3)cs2)cc1 | 1 to 25%
Cc1ccc(NC(=O)c2sc3nc(-c4ncccn4)[nH]c(=O)c3c2C)c(C)c1 | 1 to 25%
Cc1ccc(OCc2nnc(SCC3CCCCO3)o2)cc1 (stereo not shown) | 1 to 25%

From patent publication US10940139B2, “Compounds that interact with the Ras superfamily for the treatment of cancers, inflammatory diseases, rasopathies, and fibrotic disease” (Shy Therapeutics LLC, priority 2017, dated 2021)
